The values that follow come from patent US5602141A, “Camptothecin derivatives and process for their preparation” (Pharmacia & Upjohn S.P.A., priority 1994, dated 1997).

In general, IC50 refers to the midpoint of a concentration-inhibition curve.

The conditions of series [1]: Slichenmyer et al. 1993; cited from earlier work.
The next series deals with Topoisomerase I. As to conditions: Wani et al. 1987; Hsiang et al. 1989; cited from earlier work.
Series [2] concerns L1210 murine leukemia cells. The experiment in a line: Method (a): cytotoxic activity on L1210 murine leukemia cells, 48 h exposure, Coulter Counter. Format: cell-based. As to conditions: Mus musculus, 48 h at 37° C., mean of 3 different experiments, read-out: IC50 (dose causing 50% inhibition of cell growth relative to untreated controls). Here is the method: Method (a): Evaluation of Cytotoxic Activity
L1210 murine leukemia cells were grown in vitro as a stationary suspension in RPMI 1640 medium supplemented with 10% fetal calf serum, 2 mM L-glutamine, 10 μM B-mercaptoethanol, 100 UI/ml penicillin and 100 μg streptomycin. For assaying the cytotoxic activity, exponentialily growing cells were seeded at the concentration of 1×10^5 cells/ml and exposed to graded doses of the compounds under evaluation for 48 h at 37° C. in an humidified atmosphere of 5% CO2. The number of surviving cells was determined with a Coulter Counter; results are expressed as IC50 (dose causing 50% inhibition of cell growth in treated cultures relative to untreated controls after 48 h treatment).
In this assay, 9-(iminomethyl-amino)-camptothecin (internal code FCE 28536) and 9-(dimethylamino-methyleneamino)-camptothecin (internal code FCE 29006) were tested and the obtained results, which represent the mean of 3 different experiments, are reported on Table 2 below.

The test system of the next series is L1210 murine leukemia. The experiment in a line: Method (b): antitumor (antileukemic) activity, L1210 murine leukemia implanted ip into CD2F1 mice, median survival time. The class given is in vivo. As to conditions: 24 h after tumor cells implant (day 1). Here is the method: Method (b): Evaluation of Antitumor Activity
L1210 murine leukemia was maintained in DBA2 mice by weekly ip transplants of 10^5 cells/mouse. For assaying the antileukemic activity, […] were implanted ip into CD2F1 mice; graded doses of the compounds under evaluation were administered ip 24 h after tumor cells implant on day 1 controls receiving vehicle alone.
The activity of the drugs was determined evaluating the median survival time (MST) of each group of mice.
The obtained results, expressed as % T/C, are reported on Table 3 below.

As to `CC[C@@]1(O)C(=O)OCc2c1cc1n(c2=O)Cc2cc3ccccc3nc2-1` [Camptothecin, camptothecin], the “solubility in aqueous solutions” value in series [1] is “low solubility in aqueous solutions”. Moreover, the “antitumor activity by the inhibition of Topoisomerase I” value with Topoisomerase I is listed as “potent antitumor activity by the inhibition of Topoisomerase I”.
For `CC[C@@]1(O)C(=O)OCc2c1cc1n(c2=O)Cc2cc3c(N)cccc3nc2-1` [9-amino camptothecin], in series [1], the “solubility in aqueous solutions” value was “low solubility in aqueous solutions”. Moreover, the “antitumor activity by the inhibition of Topoisomerase I” value in the series on Topoisomerase I is reported as “potent antitumor activity by the inhibition of Topoisomerase I”.
Regarding `CC[C@@]1(O)C(=O)OCc2c1cc1n(c2=O)Cc2cc3c(N=CN(C)C)cccc3nc2-1` [FCE 29006, 9-(dimethylamino-methyleneamino)-camptothecin], the IC50 in series [2] stood at 120 nM. Moreover, the “% T/C (MST treated mice/MST control mice × 100)” value with L1210 murine leukemia (5 mg/kg ip) is on record as 150%; in the series with L1210 murine leukemia (10 mg/kg ip), 163%; with L1210 murine leukemia (15 mg/kg ip), 175%.
Take `CC[C@@]1(O)C(=O)OCc2c1cc1n(c2=O)Cc2cc3c(NC=N)cccc3nc2-1` [FCE 28536, 9-(iminomethyl-amino)-camptothecin]: in series [2], the 50% inhibitory concentration (IC50) was 82 nM. In addition, the “% T/C (MST treated mice/MST control mice × 100)” value in the series on L1210 murine leukemia (5 mg/kg ip) was 150-163%; with L1210 murine leukemia (10 mg/kg ip), 188%.
